Reference: patent US12600724B2, “Indole alkaloid and preparation method and use thereof” (NANJING UNIVERSITY OF CHINESE MEDICINE, priority 2022, dated 2026)

Experiments:
[1] = tested on: STZ-induced type-1 diabetes model mice; experiment: Motor nerve conduction velocity, type-1 diabetic peripheral neuropathy mice; format: in vivo, C57BL/6J mice; settings: for Motor nerve conduction velocity: type-1 mice, S26 46.8 mg/kg/day intragastric, Mean ± SD, n = 3
Experimental: (§1) Type-1 diabetes mice: male 8-week-old C57BL/6J mice were purchased from Beijing Vital River Laboratory Animal Technology Co., Ltd. One week after adaptive feeding, STZ (150 mg/kg) was injected intraperitoneally, and one week later, tail vein blood collection was carried out for blood sugar detection, and the mice with random blood sugar greater than 16 mmol/L were selected. Six weeks after STZ injection, the mice were divided into a control group (non-diabetic mice), a model group (DPN mice) and a S26 administration group (46.8 mg/kg/day) respectively according to body weight and blood sugar, and administrated intragastrically for four weeks continuously. Before administration, 2 weeks and 4 weeks after administration, motor nerve conduction velocities (MNCV) of left and right sides of each group of mice were detected, and a mean value of the velocities of two sides was taken as a nerve conduction velocity of each mouse. Specific experimental method: (1) electrode placement: a stimulating electrode was placed on a nerve trunk, a recording electrode was placed on a muscle belly, and a reference electrode was placed on a muscle tendon; and a ground electrode was placed between the stimulating electrode and the recording electrode. (2) Calculation of motor nerve conduction velocity: distal and proximal ends of the nerve trunk were stimulated in a super-strong manner, a compound muscle action potential could be recorded twice on a muscle innervated by the nerve, different latent periods of the compound muscle action potentials were measured, and a distance between the distal and proximal ends was divided by a difference between the two latent periods, so as to obtain the nerve conduction velocity. Computational formula: nerve conduction velocity (m/s)=distance between two ends (cm)×10/difference between two latent periods (ms).

[2] = tested on: diabetic foot ulcer rat model (STZ-induced diabetic rat); experiment: Foot ulcer wound area of diabetic foot ulcer model rat; format: in vivo, Sprague Dawley rats; settings: for Area of foot ulcer wound: DFU rats, S26 46.8 mg/kg/day intragastric, Mean ± SD, n = 6
Experimental: Diabetic foot ulcer (DFU) was the most common manifestation of diabetic foot, and was also a main cause of amputation of a diabetic patient. In this experiment, a certain area of wound was created on a foot back of the diabetic rat at one time to form a diabetic foot ulcer model, and then the compound S26 was administrated for treatment. The influence of the vinpocetine derivative S26 on the healing of the diabetic foot ulcer was evaluated by taking a photo of the wound and quantifying an area of the wound. […] Four weeks after STZ injection, an inhalation anesthesia machine was used to carry out isoflurane inhalation to induce anesthesia, and a complete round skin wound was created on a rear foot back of the diabetic rat through a disposable 5 mm skin biopsy punch and a Westcott scissor. After the establishment of the diabetic foot ulcer rat model, the rats were divided into a control group (non-diabetic rats), a model group (DFU rats) and a S26 administration group (46.8 mg/kg/day) respectively according to blood sugar and body weight, and administrated intragastrically for four weeks continuously. The foot ulcer wound of each rat was observed on day 0, day 3, day 7, day 14, day 21 and day 28 after administration, and photographed with a camera, and then the wound area was quantified by Image J software through scale conversion.

[3] = tested on: type-2 diabetes model db/db mice; experiment: Motor nerve conduction velocity, type-2 diabetes db/db mice; format: in vivo, BKS db/db mice; settings: for Motor nerve conduction velocity: db/db mice, S26 46.8 mg/kg/day intragastric, Mean ± SD, n = 3
Experimental: as §1, with “Type-2” for “Type-1”, “18-week-old BKS db/db” for “8-week-old C57BL/6J”, “Jiangsu Gempharmatech Biotechnology” for “Beijing Vital River Laboratory Animal Technology”, “feeding,” for “feeding, STZ (150 mg/kg) was injected intraperitoneally, and one week later, tail vein blood collection was carried out for blood sugar detection, and the mice with random blood sugar greater than 16 mmol/L were selected. Six weeks after STZ injection,”, “(db/m” for “(non-diabetic”, “(db/db” for “(DPN”

[4] = tested on: DRG neurons of type-2 diabetes peripheral neuropathy model mice; experiment: Axon growth of DRG neuron cells taken after administration, type-2 mice; format: in vivo, BKS db/db mice
Experimental: Type-2 diabetes mice: male 18-week-old BKS db/db mice were purchased from Jiangsu Gempharmatech Biotechnology Co., Ltd. One week after adaptive feeding, the mice were divided into a control group (db/m mice), a model group (db/db mice) and a S26 administration group (46.8 mg/kg/day) respectively according to body weight and blood sugar, and administrated intragastrically for four weeks continuously. After administration, a fresh DRG neuron of a mouse was extracted to digest into a single-cell suspension and then inoculated into a culture plate for adherent culture overnight. A β-tubulin III (Sigma) protein of the DRG neuron cells was labeled by an immunofluorescence staining method. The protein was imaged by a fluorescence microscope (Leica), and a total axon length of a single DRG neuron cell was tracked by a Neuro J plug-in in Image J software.

[5] = tested on: type-2 diabetes model db/db mice; experiment: Latent period of thermal pain, type-2 diabetes db/db mice; format: in vivo, BKS db/db mice; settings: S26 46.8 mg/kg/day intragastric, Mean ± SD, n = 6
Experimental: Type-2 diabetes mice: male 18-week-old BKS db/db mice were purchased from Jiangsu Gempharmatech Biotechnology Co., Ltd. One week after adaptive feeding, the mice were divided into a control group (db/m mice), a model group (db/db mice) and a S26 administration group (46.8 mg/kg/day) respectively according to body weight and blood sugar, and administrated intragastrically for four weeks continuously. A response of an animal to infrared thermal stimulation was detected weekly by an infrared plantar pain threshold detector (37370, purchased from Ugo Basile Company) before and after administration to characterize a thermal pain sensitivity of the animal. A mouse was put into a single cage equipped for the machine in advance to adapt for 20 minutes, and then plantar thermal stimulation was carried out on the mouse. […] The thermal pain sensitivity was evaluated by comparing the thermal stimulation time.

## CC[C@@]12C=C(C(=O)NCC(=O)OCCOCCOCCOCCO)n3c4c(c5ccccc53)CCN(CCC1)[C@H]42 [Compound S26]
[1]; type-1 diabetes peripheral neuropathy mouse, Tables 2 to 4
  Motor nerve conduction velocity and anesthesia symptom (in words): obviously improve
[1]; week 0 of administration
  Motor nerve conduction velocity: 20.37 ± 3.21^ m/s
[1]; week 2 of administration
  Motor nerve conduction velocity: 27.48 ± 2.97 m/s
[1]; week 4 of administration
  Motor nerve conduction velocity: 31.11 ± 3.85 m/s
[2]; day 0 of administration
  Area of foot ulcer wound: 25.02 ± 2.85 mm^2
[2]; day 3 of administration
  Area of foot ulcer wound: 22.57 ± 2.76 mm^2
[2]; day 7 of administration
  Area of foot ulcer wound: 11.83 ± 3.73^# mm^2
[2]; day 14 of administration
  Area of foot ulcer wound: 10.50 ± 2.01^## mm^2
[2]; day 21 of administration
  Area of foot ulcer wound: 8.78 ± 1.35^## mm^2
[2]; day 28 of administration
  Area of foot ulcer wound: 6.02 ± 1.67^# mm^2
[2]; diabetic foot rat
  Area of the foot ulcer wound (in words, FIG. 2): obviously reduce
[3]; week 0 of administration
  Motor nerve conduction velocity: 20.45 ± 3.94^ m/s
[3]; week 2 of administration
  Motor nerve conduction velocity: 29.70 ± 4.27 m/s
[3]; week 4 of administration
  Motor nerve conduction velocity: 36.57 ± 3.34 m/s
[3]; type-2 diabetes mouse, Tables 5 to 7
  Motor nerve conduction velocity and anesthesia symptom (in words): obviously improve
[4]; Type-2 db/db mice, DRG neurons extracted after four weeks of S26 46.8 mg/kg/day intragastric, Mean (SD in the cell below), n = 6
  Total axon length: 6070.18 pixel
[4]; type-2 diabetes peripheral neuropathy model mice
  Axon growth conditions of DRG neurons (in words, FIG. 1): obviously improve
[5]; week 0 of administration
  Latent period of thermal pain: 15.55 ± 2.29 ^ s
[5]; week 1 of administration
  Latent period of thermal pain: 13.50 ± 2.05 ^ s
[5]; week 2 of administration
  Latent period of thermal pain: 12.00 ± 2.28 s
[5]; week 3 of administration
  Latent period of thermal pain: 8.62 ± 1.51 s
[5]; week 4 of administration
  Latent period of thermal pain: 7.65 ± 1.30 s
